From the NIST ThermoML archive (doi:10.1016/j.jct.2016.05.006)
Where “and” joins values, the source holds several entries; their conditions need not be identical. Equal entries are not always repeated. Numbers after ± are expanded uncertainties.

Conditions: Liquid, Vibrating tube method

OCC(O)CO [glycerol]
mass density
Conditions | 298.15 K | 303.15 K | 308.15 K | 313.15 K | 318.15 K | 328.15 K | 338.15 K | 348.15 K
100 kPa | 1258.4 ± 1.7 kg/m3 and 1259.1 ± 1.7 kg/m3 | 1255.7 ± 1.7 kg/m3 | 1252.9 ± 1.7 kg/m3 and 1253 ± 1.7 kg/m3 | 1250.1 ± 1.7 kg/m3 | 1247 ± 1.7 kg/m3 | 1240.9 ± 1.7 kg/m3 | 1234.8 ± 1.7 kg/m3 | 1228.7 ± 1.7 kg/m3
5000 kPa | 1260.7 ± 1.7 kg/m3 and 1260.6 ± 1.7 kg/m3 | 1257.8 ± 1.7 kg/m3 | 1254.9 ± 1.7 kg/m3 and 1254.6 ± 1.7 kg/m3 | 1251.8 ± 1.7 kg/m3 | 1248.5 ± 1.7 kg/m3 | 1242.5 ± 1.7 kg/m3 | 1236.4 ± 1.7 kg/m3 | 1230.4 ± 1.7 kg/m3
10000 kPa | 1262.3 ± 1.7 kg/m3 and 1262.1 ± 1.7 kg/m3 | 1259.3 ± 1.7 kg/m3 | 1256.3 ± 1.7 kg/m3 and 1256.1 ± 1.7 kg/m3 | 1253.4 ± 1.7 kg/m3 | 1250.1 ± 1.7 kg/m3 | 1244.1 ± 1.7 kg/m3 | 1238.1 ± 1.7 kg/m3 | 1232.1 ± 1.7 kg/m3
15000 kPa | 1263.7 ± 1.8 kg/m3 and 1263.6 ± 1.8 kg/m3 | 1260.8 ± 1.8 kg/m3 | 1257.9 ± 1.8 kg/m3 and 1257.6 ± 1.8 kg/m3 | 1254.9 ± 1.8 kg/m3 | 1251.6 ± 1.8 kg/m3 | 1245.6 ± 1.7 kg/m3 | 1239.6 ± 1.7 kg/m3 | 1233.6 ± 1.7 kg/m3
20000 kPa | 1265.2 ± 1.8 kg/m3 and 1265.1 ± 1.8 kg/m3 | 1262.3 ± 1.8 kg/m3 | 1259.4 ± 1.8 kg/m3 and 1259.1 ± 1.8 kg/m3 | 1256.4 ± 1.8 kg/m3 | 1253.2 ± 1.8 kg/m3 | 1247.2 ± 1.8 kg/m3 | 1241.3 ± 1.8 kg/m3 | 1235.3 ± 1.8 kg/m3
25000 kPa | 1266.6 ± 1.8 kg/m3 and 1266.5 ± 1.8 kg/m3 | 1263.7 ± 1.8 kg/m3 | 1260.8 ± 1.8 kg/m3 and 1260.6 ± 1.8 kg/m3 | 1257.9 ± 1.8 kg/m3 | 1254.7 ± 1.8 kg/m3 | 1248.8 ± 1.8 kg/m3 | 1242.9 ± 1.8 kg/m3 | 1237.1 ± 1.8 kg/m3
